According to patent US9272035B2, “Methods and compositions using PDE4 inhibitors for the treatment and management of autoimmune and inflammatory diseases” (Celgene Corporation, priority 2011, dated 2016):
Several values for one entry are separate records, joined by “and”; a condition that tells them apart may be missing. Identical values can stand only once. Entries after “also recorded” stand apart in the source; their conditions may differ. Like-named read-outs stand apart in the source and are kept apart here. Each block holds one compound with its values, some of them ahead of it.

Experiments:
[1] = test system: mAB/LPS-induced experimental arthritis; experiment: Antibody-induced arthritis in mice (mAb/LPS model, 11 treatment days)
[2] = Pharmacokinetic data for study drugs; parameters: species or system RA patients; conditions: human, in vivo; for concentration at 7 day: read-out: Cmin
[3] = test system: mAB/LPS-induced experimental arthritis; experiment: mAB/LPS-induced experimental murine arthritogenic model, paw thickness (five treatment days); type: in vivo, BALB/c male mice
Description: The mice were administered with 1, 5 and 25 mg/kg once daily oral (PO) gavage throughout five successive treatment days.

[4] = test system: rheumatoid arthritis synovial fibroblasts stimulated with IL-1, IL-6 and IL-6R; experiment: IL-7 gene expression assay in synovial fibroblasts; type: cell-based, human
Description: (§1) IL-7 Gene Expression Assay: […] Normal primary human chondrocytes and rheumatoid arthritis synovial fibroblasts purchased from Asterand (Detroit, Mich.) were thawed into a T-75 flask and cultured for 2-3 weeks to reach confluency. The media was 20% premium non-heat inactivated FBS-DMEM/F-12 (Invitrogen 11330-032)+1% pen/strep and 1% L-Glutamine. […] Upon reaching 90% confluency (usually in 1-2 days post-plating), the cells were serum starved for 20 hours by replacing the complete media with 2 ml serum-free media. The cells were treated with the test compounds for 1 hour at 37° C. […] The cells were then washed with cold PBS. Ribonucleic acid (RNA) was isolated by adding 600 μl RLT lysis buffer (Qiagen RNAEasy kit cat#74104), passing the cells through the Qiashredder (Qiagen cat#23800) followed by RNA isolation according to manufacturers' instructions (Qiagen RNAEasy kit). Purified RNA was reverse transcribed into cDNA with thermal cycler for real-time reverse transcriptase polymerase chain reaction (RTPCR) analysis. Interleukin-7 gene expression assays were carried out using the 7500 Real Time PCR system. A GAPDH gene expression assay control was run for each sample and was used as a normalization control.

Human bone marrow cells = experiment: Osteoclastogenesis induced by dexamethasone and Vitamin D; type: cell-based; conditions: 10 nM dexamethasone and 10 nM Vitamin D; day 7
Description: Human bone marrow cells were treated with Compound A and with 10 nM dexamethasone and 10 nM Vitamin D to differentiate cells into osteoclasts. Fresh media and Compound A were added every 3 days. At day 7 supernatant was collected and adherent cells were isolated to obtain RNA. Day 7 cells were stained with TRAPS and the number of osteoclasts was counted.

[5] = test system: collagen antibody-induced arthritis; experiment: Mouse model of collagen antibody-induced arthritis (CAIA); type: in vivo, Male BALB/c mice
Description: (§2) Cytokine and chemokine protein levels were analyzed by cytometric bead array on a Luminex 100. CAIA model: […] Compound A and ETN were administered once daily on days 3-13. […] Both hind paws (left and right) of each animal were examined for signs of arthritogenic responses in blinded fashion. Arthritic reactions were scored and recorded according to a 0-4 scale in ascending order of severity. Hind paw thickness was measured in mm using a Mitutoyo Electronic Digital Caliper.

[6] = test system: Human peripheral blood total T cells stimulated with anti-CD3 antibody; experiment: Cytokine and chemokine production by anti-CD3-stimulated T cells (cytometric bead array, Luminex 100); type: cell-based
Description: as §2

[7] = test system: stimulated primary human normal chondrocytes; experiment: Cell surface protein expression assay (flow cytometry); type: cell-based
Description: Cell Surface Protein Expression Assay: Normal primary human chondrocyte were thawed into a T-75 flask and grown for 2-3 weeks to reach confluency in 20% premium non-heat inactivated FBS-DMEM/F-12 (Invitrogen 11330-032)+1% pen/strep and 1% L-Glutamine. The cells were plated (1.0×10^6 cells/10 ml of complete media) in a 100×20 mm tissue culture plate. The next day, the media was replaced with 10 ml serum-free media for 20 min to serum starve the cells. Compound A (0.1-10 μM) was added for 1 hour at 37° C. (0.25% final DMSO). In addition, cytokines IL-1β (10 ng/ml), IL-6 (10 ng/ml), and IL-6R (20 ng/ml) were added and the cells continued incubation overnight (18 hours) at 37° C. The cells were harvested by a non-enzymatic cell dissociation solution (Millipore S-004-B) then washed once in cold stain buffer (BD Pharmigen 554656) at 300×g for 5 minutes. The cells were resuspended and aliquoted into three 5 ml round bottom tubes plus two additional aliquots for control. The cells were washed again in cold stain buffer at 300×g for 5 minutes. The cells were stained with PE mouse anti-human: CD54 (ICAM-1) (BD Pharmigen 555511) and Integrin αVβ3 anti (Millipore MAB1976H). The samples were vortexed and incubated for 30 minutes at 4° C. while being protected from light. […] After a final wash, 500 μl of stain buffer was added to each sample and analyzed by flow cytometry.

[8] = test system: mAB/LPS-induced experimental arthritis; experiment: Histopathological evaluation of the tibiotarsal joint of arthritic mice; type: in vivo; parameters: key to Fibrin deposition / Inflammatory infiltration in the synovial membrane / Pannus formation (reflected by proliferation of granulation tissue) / Cartilage disruption / Hyaline cartilage destruction (reflected by resorption/erosion in the cartilage) / Subchondral bone destruction (reflected by resorption/erosion by osteoclasts and loss of bone) / Overall assessment: “determined as arthritis” / Synovial hyperplasia / Synovial villus formation: 0=unremarkable; 1=minimal; 2=mild; 3=moderate; 4=marked; conditions: 25 mg/kg
Description: Compound A), total 16 animals were tested with Vehicle Control or 25 mg/kg of (+) isomer for histopathological evaluation. […] Each limb from the middle of the tibia and distally, to include the ankle joint, i.e., the joint between the leg and foot (tibial-tarsus joint), was trimmed mid-longitudinally, and both halves were embedded in paraffin and slides of 6 micron thickness were cut and stained by hematoxylin and eosin. Histopathological changes in the joints were described and scored, using semiquantitative grading of five grades (0-4), taking into consideration the severity of the changes (0=unremarkable, 1=minimal, 2=mild, 3=moderate, 4=marked). […] All typical ranges of changes characteristically seen in this arthritis were noted.

[9] = test system: normal primary human chondrocytes stimulated with IL-1, IL-6 and IL-6R; experiment: IL-7 gene expression assay in chondrocytes; type: cell-based
Description: as §1

[10] = test system: Normal human osteoblast cells (nHOST); experiment: Osteoblast production of RANKL and OPG (ELISA); type: cell-based; conditions: 7 days with 10 nM dexamethasone and 10 nM Vitamin D
Description: Normal human osteoblast cells (nHOST, source: Lonza) were plated in 6 well plates and incubated overnight for cell attachment. Cells were treated for 7 days with Compound A and with 10 nM dexamethasone and 10 nM Vitamin D. Compound and media was refreshed every 3-4 days. On Day 7 supernatent was collected for RANKL and OPG by ELISA.

[11] = cited from earlier work
[12] = tibiotarsal joint, grade 0-4, individual animals No. 25-32

Cmax ([2]; 20-mg, day-7): 0.419 µg/mL
concentration at 7 day ([2]; 20-mg, day-7): 0.0049 µg/mL
IC50s, production of all T cell cytokines and chemokines measured (IL-2, IL-4, IL-13, IFN-γ, TNF-α, CXCL10, CCL3, and CCL4) ([6]; anti-CD3 antibody, 2 days, range over all analytes): 0.015 to 0.36 mg/L
Compound: CCOc1cc([C@@H](CS(C)(=O)=O)N2C(=O)c3cccc(NC(C)=O)c3C2=O)ccc1OC [Compound A, (S)-N-(2-(1-(3-ethoxy-4-methoxyphenyl)-2-(methylsulfonyl)ethyl)-1,3-dioxoisoindolin-4-yl)acetamide]
mean group arthritogenic scoring value of both hind paws ([1]; 25 mg/kg, vs. Vehicle Control on Days 9, 11 and 14, respectively): statistically to extremely significant reductions (p<0.05, p<0.01, p<0.001)
treatment-related adverse reactions ([1]; 5 and 25 mg/kg PO once daily, 11 days, 14-day observation period): No obvious treatment-related adverse reactions
mean group percentage change in hind paw thickness vs. arthritis induction initiation (Day 0) ([1]; 5 or 25 mg/kg, vs. Vehicle Control, Days 7, 9, 11 & 14): highly significantly lower (P<0.01)
hind paw thickness (suppression of paw swelling) ([3]; 5 mg/kg PO once daily, limited to Day 9, vs. Vehicle Control): A lesser extent (p<0.05 vs. Vehicle Control)
hind paw thickness (suppression of paw swelling) ([3]; 25 mg/kg PO once daily, vs. Vehicle Control): highly statistically significant (p<0.01 vs. Vehicle Control) and constant suppression of paw swelling; also recorded: statistically significant reduction of paw swelling
IL-7 gene expression ([4]; 0.1-10 μM): significantly inhibited
osteoclast formation (osteoclastogenesis) (Human bone marrow cells): inhibit osteoclast formation; also recorded: significantly inhibits osteoclastogenesis
arthritis by histopathological analysis ([5]; 25 mg/kg): practically no existing arthritis
hind-paw arthritic reaction scores and thickness ([5]; 5 and 25 mg/kg orally once daily on days 3-13): significantly reduced (p<0.01)
synovial hyperplasia, synovial villus formation, fibrin deposition, inflammatory infiltration in the synovial membrane, pannus formation, cartilage disruption, and subchondral bone destruction ([5]; high dose): inhibited
inhibition of IL-2, IL-4, IL-13, IFN-γ, TNF-α, CXCL10, CCL3, and CCL4 ([6]; human T cells): resulted in inhibition
alpha-v-beta-3 (αvβ3) integrin expression [7]: inhibited expression
intercellular adhesion molecule 1 (ICAM-1) expression [7]: inhibited expression
arthritis by histopathological evaluation ([8]; all samples from treated animals): practically no existing arthritis
Cartilage disruption [8, 12]: 0
Fibrin deposition [8, 12]: 0 (6×) and 1 (2×)
Hyaline cartilage destruction (reflected by resorption/erosion in the cartilage) [8, 12]: 0
Inflammatory infiltration in the synovial membrane [8, 12]: 0
Overall assessment: “determined as arthritis” [8, 12]: 0
Pannus formation (reflected by proliferation of granulation tissue) [8, 12]: 0
Subchondral bone destruction (reflected by resorption/erosion by osteoclasts and loss of bone) [8, 12]: 0
Synovial hyperplasia [8, 12]: 0
Synovial villus formation [8, 12]: 0
IL-7 gene expression ([9]; 0.1-10 μM, normal primary human chondrocytes): significantly inhibited
inhibition of IL-7 gene expression compared with methotrexate and etanercept ([9]; dose ranges encompassing the respective Cmax of MTX and ETC): more effective inhibitor of IL-7 gene expression than methotrexate and etanercept
sRANKL ([10]; 1 μM and 10 μM): significant decrease
OPG [10]: increase
RANKL/OPG ratio [10]: significantly inhibit

Cmax ([2]; 200-mg day-7): 0.195 µg/mL
concentration at 7 day ([2]; 200-mg day-7): 0.04 µg/mL
Compound: CCOc1cc([C@@H](CS(C)(=O)=O)N2Cc3cccc(NC(=O)C4CC4)c3C2=O)ccc1OC [Compound B, (S)-N-(2-(1-(3-ethoxy-4-methoxyphenyl)-2-(methylsulfonyl)ethyl)-3-oxoisoindolin-4-yl)cyclopropanecarboxamide]

Compound: CN(Cc1cnc2nc(N)nc(N)c2n1)c1ccc(C(=O)N[C@@H](CCC(=O)O)C(=O)O)cc1 [MTX, methotrexate]
IL-7 gene expression ([4]; comparators): no significant effects
Cmax ([11]; Depending on RA patients): 0.3 to 1.04 µg/mL
maximum plasma concentration (Cmax) [11]: 0.4 µg/mL

Compound: etanercept
mean group arthritogenic scoring value of both hind paws ([1]; 6.25 mg/kg, p<0.001 vs. Vehicle Control, study days 7, 9, 11 and 14): highly to extremely statistically lower (p<0.01 & p<0.001, respectively)
IL-7 gene expression ([4]; comparators): no significant effects
IC50, IL-13 and IP-10 ([6]; anti-CD3 antibody, 2 days): 0.016 to 0.062 mg/L
IC50, TNF-α ([6]; anti-CD3 antibody, 2 days): 0.0015 mg/L
Cmax (ng/ml) ([11]; RA patient 6 months 25-mg biweekly): 3000 (1700 to 5600) ng/ml
Cmax (ng/ml) ([11]; RA patients 50-mg weekly): weekly: 2400 ± 1500 ng/ml
Cmin ([11]; RA patients): 1.2 ± 0.7 µg/mL
maximum plasma concentration (Cmax) [11]: 1.6 µg/mL
Bioavailability ([11]; in vivo): 76%
